Source: ChEMBL document CHEMBL1150570, “Five novel neuroprotective triterpene esters of Ulmus davidiana var. japonica” (2001)

Experiment: Neuroprotective activity against glutamate-induced toxicity in Sprague-Dawley rat cortical cells assessed as cell viability at 5 uM pretreated 1 hr before glutamate challenge by LDH release assay
Format: functional
Settings: read-out: Activity

## C=C(C)[C@@H]1CC[C@]2(C)C[C@H](OC(=O)c3ccccc3)[C@]3(C)[C@H](C[C@@H](OC(=O)c4ccc(O)c(OC)c4)[C@@H]4[C@@]5(C)CC[C@H](O)C(C)(C)[C@@H]5CC[C@]43C)[C@@H]12 [ULMICIN E]
  viability at 5 µM: 41%

## C=C(C)[C@@H]1CC[C@]2(C)C[C@H](O)[C@]3(C)[C@H](C[C@@H](OC(=O)c4ccc(O)cc4)[C@@H]4[C@@]5(C)CC[C@H](O)C(C)(C)[C@@H]5CC[C@]43C)[C@@H]12 [ULMICIN B]
  viability at 5 µM: 51.2%

## C=C(C)[C@@H]1CC[C@]2(C)C[C@H](O)[C@]3(C)[C@H](C[C@@H](OC(=O)c4ccc(O)c(OC)c4)[C@@H]4[C@@]5(C)CC[C@H](O)C(C)(C)[C@@H]5CC[C@]43C)[C@@H]12 [ULMICIN A]
  viability at 5 µM: 48%

## C=C(C)[C@@H]1CC[C@]2(C)C[C@H](OC(=O)c3ccc(O)cc3)[C@]3(C)[C@H](C[C@@H](OC(=O)c4ccc(O)c(OC)c4)[C@@H]4[C@@]5(C)CC[C@H](O)C(C)(C)[C@@H]5CC[C@]43C)[C@@H]12 [ULMICIN C]
  viability at 5 µM: 49.2%

## C=C(C)[C@@H]1CC[C@]2(C)C[C@H](OC(=O)c3ccc(O)c(OC)c3)[C@]3(C)[C@H](C[C@@H](OC(=O)c4ccc(O)c(OC)c4)[C@@H]4[C@@]5(C)CC[C@H](O)C(C)(C)[C@@H]5CC[C@]43C)[C@@H]12 [ULMICIN D]
  viability at 5 µM: 44.2%
